Molecular target: RIPK3 (Homo sapiens (Human), UniProt Q9Y572)
Test: RIPK3 HTRF Kinase Assay
Format: binding
Details: RIPK3 1 nM; HTRF probe 23 nM; 60 min at room temperature; read-out: IC50 for Inhibition of RIPK3

RIPK3, sequence (Q9Y572 whole entry, species assumed): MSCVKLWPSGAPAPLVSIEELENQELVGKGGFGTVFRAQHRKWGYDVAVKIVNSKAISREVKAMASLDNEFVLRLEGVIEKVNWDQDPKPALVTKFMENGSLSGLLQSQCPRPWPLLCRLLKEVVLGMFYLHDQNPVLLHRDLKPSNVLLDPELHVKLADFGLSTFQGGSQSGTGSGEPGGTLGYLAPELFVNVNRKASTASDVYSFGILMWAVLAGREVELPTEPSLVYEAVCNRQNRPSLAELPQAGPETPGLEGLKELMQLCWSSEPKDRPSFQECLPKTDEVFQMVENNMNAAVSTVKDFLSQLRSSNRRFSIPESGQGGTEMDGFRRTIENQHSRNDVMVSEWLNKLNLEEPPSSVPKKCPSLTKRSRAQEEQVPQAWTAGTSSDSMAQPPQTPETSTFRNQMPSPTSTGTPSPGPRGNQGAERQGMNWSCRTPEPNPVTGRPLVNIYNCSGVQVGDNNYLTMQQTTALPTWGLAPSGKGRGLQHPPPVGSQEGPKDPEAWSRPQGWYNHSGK

Structure (SMILES) | IC50 [µM]
CC(C)(C)Cn1c2c(c(-c3ccc(F)cc3)c1-c1ccncc1)C(=O)NCC2 [Example 61] | 0.1 to 15
CCn1c2c(c(-c3ccc(F)cc3)c1-c1ccncc1)C(=O)NCC2 [Example 62] | 0.1 to 15
CCC(C)n1c2c(c(-c3ccc(F)cc3)c1-c1ccncc1)C(=O)NCC2 (centres unmarked) [Example 63] | 0.1 to 15
O=C1NCCc2c1c(-c1ccc(F)cc1)c(-c1ccncc1)n2Cc1ccc(F)cc1F [Example 64] | < 0.03
Cc1cc(Cn2c3c(c(-c4ccc(F)cc4)c2-c2ccncc2)C(=O)NCC3)n(C)n1 [Example 65] | < 0.03
O=C1NCCc2c1c(-c1ccc(F)cc1)c(-c1ccncc1)n2Cc1ccncc1 [Example 66] | < 0.03
COc1cc(C(F)(F)F)ccc1Cn1c2c(c(-c3ccc(F)cc3)c1-c1ccncc1)C(=O)NCC2 [Example 67] | 0.031 to 0.1
N#Cc1ccccc1Cn1c2c(c(-c3ccc(F)cc3)c1-c1ccncc1)C(=O)NCC2 [Example 68] | < 0.03
O=C1NCCc2c1c(-c1ccc(F)cc1)c(-c1ccncc1)n2CCCO [Example 69] | 0.031 to 0.1
O=C1NCCc2c1c(-c1ccc(F)cc1)c(-c1ccncc1)n2CC(=O)N1CCCC1 [Example 70] | 0.031 to 0.1
O=C1NCCc2c1c(-c1ccc(F)cc1)c(-c1ccncc1)n2Cc1c(F)cc(F)cc1F [Example 71] | < 0.03
O=C1NCCc2c1c(-c1ccc(F)cc1)c(-c1ccncc1)n2Cc1ccncn1 [Example 72] | 0.1 to 15
O=C1NCCc2c1c(-c1ccc(F)cc1)c(-c1ccncc1)n2Cc1c(F)cccc1C(F)(F)F [Example 73] | < 0.03
O=C1NCCc2c1c(-c1ccc(F)cc1)c(-c1ccncc1)n2Cc1ccc(Cl)cc1F [Example 74] | < 0.03
CC(C)(C)CCn1c2c(c(-c3ccc(F)cc3)c1-c1ccncc1)C(=O)NCC2 [Example 75] | < 0.03
O=C1NCCc2c1c(-c1ccc(F)cc1)c(-c1ccncc1)n2Cc1ccccn1 [Example 76] | 0.1 to 15
N#Cc1cccc(F)c1Cn1c2c(c(-c3ccc(F)cc3)c1-c1ccncc1)C(=O)NCC2 [Example 77] | < 0.03
O=C1NCCc2c1c(-c1ccc(F)cc1)c(-c1ccncc1)n2CC1CCCC1 [Example 78] | < 0.03
Cc1cc(Cn2c3c(c(-c4ccc(F)cc4)c2-c2ccncc2)C(=O)NCC3)no1 [Example 79] | 0.031 to 0.1
Cn1ccnc1Cn1c2c(c(-c3ccc(F)cc3)c1-c1ccncc1)C(=O)NCC2 [Example 80] | 0.1 to 15
Cc1nc(Cn2c3c(c(-c4ccc(F)cc4)c2-c2ccncc2)C(=O)NCC3)no1 [Example 81] | 0.031 to 0.1
O=C1NCCc2c1c(-c1ccc(F)cc1)c(-c1ccncc1)n2CCO [Example 82] | 0.1 to 15
CC(C)NC(=O)Cn1c2c(c(-c3ccc(F)cc3)c1-c1ccncc1)C(=O)NCC2 [Example 83] | 0.1 to 15
N#Cc1cc(F)c(Cn2c3c(c(-c4ccc(F)cc4)c2-c2ccncc2)C(=O)NCC3)c(F)c1 [Example 84] | < 0.03
O=C(Nc1cc(-c2c(-c3ccc(F)cc3)c3c(n2CC2CCOCC2)CCNC3=O)ccn1)c1ccncc1 [Example 85] | 0.1 to 15

Structure (SMILES) | IC50 [µM]
O=C(Nc1cc(-c2c(-c3ccc(F)cc3)c3c(n2CC2CCOCC2)CCNC3=O)ccn1)c1ccccc1 [Example 86] | 0.1 to 15
O=C1NCCc2c1c(-c1ccc(F)cc1)c(-c1ccnc(NC(=O)C3CC3)c1)n2CC1CCOCC1 [Example 87] | 0.031 to 0.1
CC(C)C(=O)Nc1cc(-c2c(-c3ccc(F)cc3)c3c(n2CC2CCOCC2)CCNC3=O)ccn1 [Example 88] | 0.1 to 15
COc1ccc(C(=O)Nc2cc(-c3c(-c4ccc(F)cc4)c4c(n3CC3CCOCC3)CCNC4=O)ccn2)cc1 [Example 89] | 0.1 to 15
CCC(=O)Nc1cc(-c2c(-c3ccc(F)cc3)c3c(n2CC2CCOCC2)CCNC3=O)ccn1 [Example 90] | 0.1 to 15
CC(C)OC(=O)Nc1cc(-c2c(-c3ccc(F)cc3)c3c(n2CC2CCOCC2)CCNC3=O)ccn1 [Example 91] | 0.1 to 15
CS(=O)(=O)Nc1cc(-c2c(-c3ccc(F)cc3)c3c(n2CC2CCOCC2)CCNC3=O)ccn1 [Example 92] | 0.1 to 15
CC(C)CC(=O)Nc1cc(-c2c(-c3ccc(F)cc3)c3c(n2CC2CCOCC2)CCNC3=O)ccn1 [Example 93] | 0.1 to 15
CCCC(=O)Nc1cc(-c2c(-c3ccc(F)cc3)c3c(n2CC2CCOCC2)CCNC3=O)ccn1 [Example 94] | 0.1 to 15
CCOC(=O)Nc1cc(-c2c(-c3ccc(F)cc3)c3c(n2CC2CCOCC2)CCNC3=O)ccn1 [Example 95] | 0.031 to 0.1
CCNC(=O)Nc1cc(-c2c(-c3ccc(F)cc3)c3c(n2CC2CCOCC2)CCNC3=O)ccn1 [Example 97] | 0.1 to 15
CC(=O)Nc1cc(-c2c(-c3ccc(F)cc3)c3c(n2Cc2ccc(F)c(C#N)c2)CCNC3=O)ccn1 [Example 99] | 0.031 to 0.1
CC(=O)Nc1cc(-c2c(-c3ccc(F)cc3)c3c(n2Cc2ccc(F)cc2C#N)CCNC3=O)ccn1 [Example 100] | < 0.03
CC(=O)Nc1cc(-c2c(-c3ccc(F)cc3)c3c(n2Cc2ccc(C(F)(F)F)cc2F)CCNC3=O)ccn1 [Example 101] | < 0.03
CC(=O)Nc1cc(-c2c(-c3ccc(F)cc3)c3c(n2Cc2ccc(C(F)(F)F)cc2)CCNC3=O)ccn1 [Example 102] | 0.1 to 15
Cc1ccc(-c2c3c(n(CC4CCOCC4)c2-c2ccncc2)CCNC3=O)c(C)c1 [Example 103] | 0.1 to 15
COc1ccc(-c2c3c(n(CC4CCOCC4)c2-c2ccncc2)CCNC3=O)cc1 [Example 104] | 0.1 to 15
O=C1NCCc2c1c(-c1cccc(C(F)(F)F)c1)c(-c1ccncc1)n2CC1CCOCC1 [Example 105] | 0.1 to 15
CC(=O)Nc1cccc(-c2c3c(n(CC4CCOCC4)c2-c2ccncc2)CCNC3=O)c1 [Example 106] | 0.1 to 15
COc1ccc(-c2c3c(n(CC4CCOCC4)c2-c2ccncc2)CCNC3=O)cn1 [Example 107] | 0.1 to 15
CN(C)c1cccc(-c2c3c(n(CC4CCOCC4)c2-c2ccncc2)CCNC3=O)c1 [Example 109] | 0.1 to 15
O=C1NCCc2c1c(-c1cccc(OC(F)(F)F)c1)c(-c1ccncc1)n2CC1CCOCC1 [Example 110] | 0.1 to 15
O=C1NCCc2c1c(-c1cnc3ccccc3c1)c(-c1ccncc1)n2CC1CCOCC1 [Example 111] | 0.1 to 15
O=C1NCCc2c1c(-c1cccc3ccncc13)c(-c1ccncc1)n2CC1CCOCC1 [Example 112] | 0.1 to 15
COc1ccc(-c2c3c(n(Cc4ccc(F)cc4C#N)c2-c2ccncc2)CCNC3=O)cc1OC [Example 113] | 0.1 to 15

Structure (SMILES) | IC50 [µM]
N#Cc1cc(F)ccc1Cn1c2c(c(-c3cccc(OC(F)(F)F)c3)c1-c1ccncc1)C(=O)NCC2 [Example 114] | 0.031 to 0.1
N#Cc1cc(F)ccc1Cn1c2c(c(-c3ccc(F)c(F)c3)c1-c1ccncc1)C(=O)NCC2 [Example 115] | < 0.03
N#Cc1cc(F)ccc1Cn1c2c(c(-c3ccc4ncccc4c3)c1-c1ccncc1)C(=O)NCC2 [Example 116] | 0.1 to 15
COc1cc(F)cc(-c2c3c(n(Cc4ccc(F)cc4C#N)c2-c2ccncc2)CCNC3=O)c1 [Example 117] | 0.031 to 0.1
Cn1ccc2cc(-c3c4c(n(Cc5ccc(F)cc5C#N)c3-c3ccncc3)CCNC4=O)ccc21 [Example 118] | 0.031 to 0.1
COc1ccc(-c2c3c(n(Cc4ccc(F)cc4C#N)c2-c2ccncc2)CCNC3=O)cc1 [Example 121] | 0.031 to 0.1
N#Cc1cc(F)ccc1Cn1c2c(c(-c3ccc(OC(F)(F)F)cc3)c1-c1ccncc1)C(=O)NCC2 [Example 122] | 0.1 to 15
N#Cc1cc(F)ccc1Cn1c2c(c(-c3cccc(C(F)(F)F)c3)c1-c1ccncc1)C(=O)NCC2 [Example 123] | < 0.03
COc1ccc(-c2c3c(n(Cc4ccc(F)cc4C#N)c2-c2ccncc2)CCNC3=O)cn1 [Example 124] | < 0.03
CS(=O)(=O)c1cccc(-c2c3c(n(Cc4ccc(F)cc4C#N)c2-c2ccncc2)CCNC3=O)c1 [Example 126] | 0.1 to 15
N#Cc1cc(F)ccc1Cn1c2c(c(-c3ccsc3)c1-c1ccncc1)C(=O)NCC2 [Example 128] | < 0.03
N#Cc1cc(F)ccc1Cn1c2c(c(-c3cccc(Cl)c3Cl)c1-c1ccncc1)C(=O)NCC2 [Example 129] | 0.031 to 0.1
N#Cc1cc(F)ccc1Cn1c2c(c(-c3ccc(Cl)s3)c1-c1ccncc1)C(=O)NCC2 [Example 130] | < 0.03
COc1ccncc1-c1c2c(n(Cc3ccc(F)cc3C#N)c1-c1ccncc1)CCNC2=O [Example 131] | 0.1 to 15
N#Cc1cc(F)ccc1Cn1c2c(c(-c3cncc4ccccc34)c1-c1ccncc1)C(=O)NCC2 [Example 132] | 0.1 to 15
N#Cc1cc(F)ccc1Cn1c2c(c(-c3cccc(S(N)(=O)=O)c3)c1-c1ccncc1)C(=O)NCC2 [Example 133] | 0.1 to 15
N#Cc1cc(F)ccc1Cn1c2c(c(-c3cccc(CO)c3)c1-c1ccncc1)C(=O)NCC2 [Example 134] | < 0.03
N#Cc1cc(F)ccc1Cn1c2c(c(-c3ccc(OCc4ccccc4)cc3)c1-c1ccncc1)C(=O)NCC2 [Example 135] | 0.1 to 15
N#Cc1cc(F)ccc1Cn1c2c(c(-c3ccc(Cl)c(Cl)c3)c1-c1ccncc1)C(=O)NCC2 [Example 136] | < 0.03
N#Cc1cc(F)ccc1Cn1c2c(c(-c3cc(Cl)cc(Cl)c3)c1-c1ccncc1)C(=O)NCC2 [Example 138] | < 0.03
N#Cc1cccc(-c2c3c(n(Cc4ccc(F)cc4C#N)c2-c2ccncc2)CCNC3=O)c1 [Example 139] | 0.031 to 0.1
COc1cc(-c2c3c(n(Cc4ccc(F)cc4C#N)c2-c2ccncc2)CCNC3=O)ccn1 [Example 140] | < 0.03
N#Cc1cc(F)ccc1Cn1c2c(c(-c3ccoc3)c1-c1ccncc1)C(=O)NCC2 [Example 141] | < 0.03

Same assay, conditions: read-out: IC50 for Inhibition of RIPK3

Structure (SMILES) | IC50 [µM]
O=C1NCCc2c1c(-c1cccnc1)c(-c1ccncc1)n2CC1CCOCC1 [Example 108] | 0.1 to 15
N#Cc1cc(F)ccc1Cn1c2c(c(-c3cccnc3)c1-c1ccncc1)C(=O)NCC2 [Example 119] | 0.031 to 0.1
N#Cc1cc(F)ccc1Cn1c2c(c(-c3cccc(-c4ccccc4)c3)c1-c1ccncc1)C(=O)NCC2 [Example 120] | 0.1 to 15
N#Cc1cc(F)ccc1Cn1c2c(c(-c3ccccc3-c3ccccc3)c1-c1ccncc1)C(=O)NCC2 [Example 125] | 0.1 to 15
